IC50 and melting point data for 26 compounds are collected here from patent publication US8785460B2, “Tricyclic compounds and use thereof” (Takeda Pharmaceutical Company Limited, priority 2008, dated 2014).

Broadly, the IC50 is the concentration that gives 50% inhibition. A word on the melting point: it is the temperature of the solid-liquid transition.

For one data set, the target named is T1, human CRF1 receptor (Homo sapiens, UniProt P34998).
T1 construct: expressed in transfected cells; host or cells: CHO cells (membrane fraction)
T1 sequence (P34998 24-415): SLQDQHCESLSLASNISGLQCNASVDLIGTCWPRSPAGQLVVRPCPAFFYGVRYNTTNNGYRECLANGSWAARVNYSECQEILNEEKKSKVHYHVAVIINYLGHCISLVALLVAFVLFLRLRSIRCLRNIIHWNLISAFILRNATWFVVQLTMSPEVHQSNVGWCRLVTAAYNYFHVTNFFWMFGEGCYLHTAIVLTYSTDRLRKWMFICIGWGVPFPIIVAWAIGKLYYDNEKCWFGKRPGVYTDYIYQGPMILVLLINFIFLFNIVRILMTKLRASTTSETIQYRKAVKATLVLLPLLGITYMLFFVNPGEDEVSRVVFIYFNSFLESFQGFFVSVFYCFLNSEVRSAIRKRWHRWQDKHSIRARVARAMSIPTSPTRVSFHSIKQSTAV
The data set is described as follows: Measurement of CRF Binding Inhibitory Rate (receptor binding experiment with 125I-CRF). Particulars: human CRF1 receptor expressing CHO cellular membrane fraction, 50 pM 125I-CRF, room temperature 1.5 hr, 0.05 nM to 10 μM of compound; read-out: IC50 values (CRF binding inhibition).

The structures appear in SMILES notation.

With `Cc1nc(N(C)C)ccc1N1CCCn2c1nc1c(Cl)ccc(C(OC(F)F)C(F)(F)F)c12` (stereo not shown) [Example 298, 5-{9-Chloro-6-[1-(difluoromethoxy)-2,2,2-trifluoroethyl]-3,4-dihydropyrimido[1,2-a]benzimidazol-1(2H)-yl}-N,N,6-trimethylpyridin-2-amine], the melting point is 233 to 235 °C. The IC50 at human CRF1 receptor was below 1000 nM.

Regarding `CCC(CC)c1ccc(Cl)c2nc3n(c12)CCCCN3c1cnc(N(C)C)cc1C` [Example 25, 5-[10-Chloro-7-(1-ethylpropyl)-2,3,4,5-tetrahydro-1H-[1,3]diazepino[1,2-a]benzimidazol-1-yl]-N,N,4-trimethylpyridin-2-amine], the melting point is 156 to 157 °C. Besides, at human CRF1 receptor, the half-inhibitory concentration (IC50) was below 1000 nM.

Compound `CCC(OC(C)=O)c1ccc(Cl)c2nc3n(c12)CCCN3c1ccc(C(C)=O)cc1Cl` (stereo not shown) [Example 250, 1-[1-(4-Acetyl-2-chlorophenyl)-9-chloro-1,2,3,4-tetrahydropyrimido[1,2-a]benzimidazol-6-yl]propyl acetate] yielded a melting point of 183 to 186 °C. In addition, the IC50 at human CRF1 receptor was below 1000 nM.

Regarding `CCC(CC)c1ccc(Cl)c2nc3n(c12)CCCCN3c1ccc(Cl)cc1` [Example 23, 10-Chloro-1-(4-chlorophenyl)-7-(1-ethylpropyl)-2,3,4,5-tetrahydro-1H-[1,3]diazepino[1,2-a]benzimidazole], the melting point was 133 to 135 °C. Further, the IC50 at human CRF1 receptor is below 1000 nM.

Compound `CCC(CC)c1ccc(Cl)c2nc3n(c12)CCCCN3c1cnc(C(N)=O)cc1C` [Example 61, 5-[10-Chloro-7-(1-ethylpropyl)-2,3,4,5-tetrahydro-1H-[1,3]diazepino[1,2-a]benzimidazol-1-yl]-4-methylpyridine-2-carboxamide] registered a melting point of 267 to 269 °C. Further, the IC50 at human CRF1 receptor is below 1000 nM.

The compound `CCC(CC)c1ccc(Cl)c2nc3n(c12)CCCCN3c1cnc(C(C)=O)cc1C` [Example 60, 1-{5-[10-Chloro-7-(1-ethylpropyl)-2,3,4,5-tetrahydro-1H-[1,3]diazepino[1,2-a]benzimidazol-1-yl]-4-methylpyridin-2-yl}ethanone] displayed a melting point of 144 to 145 °C. The IC50 on human CRF1 receptor was below 1000 nM.

In turn, `CCC(CC)c1ccc(Cl)c2nc3n(c12)CCCCN3c1ncc([N+](=O)[O-])cc1C` [Example 64, 10-Chloro-7-(1-ethylpropyl)-1-(3-methyl-5-nitropyridin-2-yl)-2,3,4,5-tetrahydro-1H-[1,3]diazepino[1,2-a]benzimidazole] gave a melting point of 204 to 205 °C. Further, the IC50 on human CRF1 receptor is below 1000 nM.

In turn, `CCN(CC)c1cccc2nc3n(c12)CC(O)CN3c1ccc(Cl)cc1Cl` (stereo not shown) [Example 77, 1-(2,4-Dichlorophenyl)-6-(diethylamino)-1,2,3,4-tetrahydropyrimido[1,2-a]benzimidazol-3-ol] yielded a melting point of 239 to 242 °C. The IC50 on human CRF1 receptor is below 1000 nM.

`CCC(CC)c1ccc(Cl)c2nc3n(c12)CC(C)N3c1cnc(N(C)C)cc1C` (stereo not shown) [Example 78, 5-[8-Chloro-5-(1-ethylpropyl)-2-methyl-2,3-dihydro-1H-imidazo[1,2-a]benzimidazol-1-yl]-N,N,4-trimethylpyridin-2-amine] gave a melting point of 204 to 206 °C. In addition, on human CRF1 receptor, the IC50 is below 1000 nM.

In turn, `CCC(CC)c1ccc(Cl)c2nc3n(c12)CCCCN3c1ccc(OC(F)(F)F)cc1Br` [Example 39, 1-[2-Bromo-4-(trifluoromethoxy)phenyl]-10-chloro-7-(1-ethylpropyl)-2,3,4,5-tetrahydro-1H-[1,3]diazepino[1,2-a]benzimidazole] displayed a melting point of 114 to 117 °C. The IC50 at human CRF1 receptor was below 1000 nM.

`CCC(c1ccc(Cl)c2nc3n(c12)CCCN3c1c(C)nc(OC)nc1C)C(F)F` (stereo not shown) [Example 222, 9-Chloro-6-[1-(difluoromethyl)propyl]-1-(2-methoxy-4,6-dimethylpyrimidin-5-yl)-1,2,3,4-tetrahydropyrimido[1,2-a]benzimidazole]: the melting point was 181 to 183 °C. In addition, the IC50 at human CRF1 receptor was below 1000 nM.

Turning to `CCC(OCC(F)(F)F)c1ccc(Cl)c2nc3n(c12)CCCN3c1ccc(N(C)C)nc1C` (stereo not shown) [Example 167, 5-{9-Chloro-6-[1-(2,2,2-trifluoroethoxy)propyl]-3,4-dihydropyrimido[1,2-a]benzimidazol-1(2H)-yl}-N,N,6-trimethylpyridin-2-amine], the melting point fell in the range of 144 to 146 °C. Also, the IC50 at human CRF1 receptor was below 1000 nM.

As to `CCO/N=C(/CC)c1ccc(Cl)c2nc3n(c12)CCCN3c1ccc(Cl)cc1Cl` [Example 124, (1Z)-1-[9-Chloro-1-(2,4-dichlorophenyl)-1,2,3,4-tetrahydropyrimido[1,2-a]benzimidazol-6-yl]propan-1-one O-ethyloxime], the melting point was in the range of 140 to 141 °C. The IC50 at human CRF1 receptor is below 1000 nM.

For `CCC(O)c1cccc2nc3n(c12)CCCCN3c1ccc(Cl)cc1Cl` (stereo not shown) [Example 68, 1-[1-(2,4-Dichlorophenyl)-2,3,4,5-tetrahydro-1H-[1,3]diazepino[1,2-a]benzimidazol-7-yl]propan-1-ol], the melting point lay in the range of 241 to 243 °C. Besides, the IC50 on human CRF1 receptor was below 1000 nM.

`CCC(CC)c1ccc(Cl)c2nc3n(c12)CCCC(=O)N3c1ccc(Cl)cc1Cl` [Example 22, 10-Chloro-1-(2,4-dichlorophenyl)-7-(1-ethylpropyl)-4,5-dihydro-1H-[1,3]diazepino[1,2-a]benzimidazol-2(3H)-one] returned a melting point of 135 to 137 °C. Further, the IC50 at human CRF1 receptor is below 1000 nM.

In the case of `CCC(OC(C)=O)c1ccc(Cl)c2nc3n(c12)CCCN3c1ccc(OC)nc1C` (racemic) [Example 265, 1-[9-Chloro-1-(6-methoxy-2-methylpyridin-3-yl)-1,2,3,4-tetrahydropyrimido[1,2-a]benzimidazol-6-yl]propyl acetate], the melting point lay in the range of 157 to 159 °C. For the same compound, on human CRF1 receptor, the IC50 is below 1000 nM.

For `CCC(CC)c1ccc(Cl)c2nc3n(c12)CCCCN3c1ncc(Cl)cc1Cl` [Example 62, 10-Chloro-1-(3,5-dichloropyridin-2-yl)-7-(1-ethylpropyl)-2,3,4,5-tetrahydro-1H-[1,3]diazepino[1,2-a]benzimidazole], the melting point lay within 175 to 176 °C. At human CRF1 receptor, the IC50 was below 1000 nM.

Turning to `CCC(OC(C)=O)c1ccc(Cl)c2nc3n(c12)CCCCN3c1ncc(Cl)cc1Cl` (stereo not shown) [Example 329, 1-[10-Chloro-1-(3,5-dichloropyridin-2-yl)-2,3,4,5-tetrahydro-1H-[1,3]diazepino[1,2-a]benzimidazol-7-yl]propyl acetate], the melting point lay in the range of 158 to 160 °C. Moreover, the IC50 at human CRF1 receptor is below 1000 nM.

Consider `CCC(CC)c1ccc(Cl)c2nc3n(c12)C(Cl)(Cl)C(=O)N3c1c(C)cc(Cl)cc1OC` [Example 11, 3,3,8-Trichloro-1-(4-chloro-2-methoxy-6-methylphenyl)-5-(1-ethylpropyl)-1H-imidazo[1,2-a]benzimidazol-2(3H)-one], for which the melting point was 190 to 192 °C. Also, the IC50 on human CRF1 receptor was below 1000 nM.

`CCNC(=O)NC(CC)c1ccc(Cl)c2nc3n(c12)CCCN3c1ccc(Cl)cc1Cl` (stereo not shown) [Example 374, 1-{1-[9-Chloro-1-(2,4-dichlorophenyl)-1,2,3,4-tetrahydropyrimido[1,2-a]benzimidazol-6-yl]propyl}-3-ethylurea]: the melting point fell in the range of 250 to 252 °C. The IC50 at human CRF1 receptor was below 1000 nM.

The compound `Cc1nc(OC(F)F)nc(C)c1N1CCCn2c1nc1c(Cl)ccc(C(OC(F)F)C(F)(F)F)c12` (stereo not shown) [Example 216, 9-Chloro-1-[2-(difluoromethoxy)-4,6-dimethylpyrimidin-5-yl]-6-[1-(difluoromethoxy)-2,2,2-trifluoroethyl]-1,2,3,4-tetrahydropyrimido[1,2-a]benzimidazole] had a melting point of 165 to 166 °C. Further, the IC50 at human CRF1 receptor was below 1000 nM.

`CCN(CC)c1cccc2nc3n(c12)CC(N)CCN3c1ccc(Cl)cc1Cl` (stereo not shown) [Example 363, 1-(2,4-Dichlorophenyl)-N^7,N^7-diethyl-2,3,4,5-tetrahydro-1H-[1,3]diazepino[1,2-a]benzimidazole-4,7-diamine] gave a melting point of 149 to 151 °C. For the same compound, the IC50 at human CRF1 receptor is below 1000 nM.

As for `CCC(OC(=O)C1CC1)c1ccc(Cl)c2nc3n(c12)CCCN3c1ccc(OC)nc1C` (stereo not shown) [Example 268, 1-[9-Chloro-1-(6-methoxy-2-methylpyridin-3-yl)-1,2,3,4-tetrahydropyrimido[1,2-a]benzimidazol-6-yl]propyl cyclopropanecarboxylate], the melting point fell in the range of 149 to 151 °C. The IC50 at human CRF1 receptor was below 1000 nM.

Regarding `COCC(C)(C)c1ccc(Cl)c2nc3n(c12)CCCN3c1ccc(Cl)cc1Cl` [Example 150, 9-Chloro-1-(2,4-dichlorophenyl)-6-(2-methoxy-1,1-dimethylethyl)-1,2,3,4-tetrahydropyrimido[1,2-a]benzimidazole], the melting point is 188 to 190 °C. In addition, the IC50 at human CRF1 receptor was below 1000 nM.

As for `CCC(CC)c1ccc(Cl)c2nc3n(c12)CCCCN3c1c(C)cc(Cl)cc1OC` [Example 56], the melting point lay within 196 to 198 °C. In addition, the IC50 at human CRF1 receptor is below 1000 nM.

For `CCC(NC(C)=O)c1ccc(Cl)c2nc3n(c12)CCCN3c1ccc(Cl)cc1Cl` (stereo not shown) [Example 440, N-{1-[9-Chloro-1-(2,4-dichlorophenyl)-1,2,3,4-tetrahydropyrimido[1,2-a]benzimidazol-6-yl]propyl}acetamide], the melting point fell in the range of 237 to 239 °C. Besides, on human CRF1 receptor, the IC50 was below 1000 nM.
